The record followed here is ChEMBL document CHEMBL5465560, “Selectivity Literature for EUbOPEN Chemogenomic Library” (2024).

Holding throughout (conditions): at 10 µM
Experiment [1] concerns the target T1, Serine/threonine-protein kinase 17A (Homo sapiens) (UniProt Q9UEE5).
T1 sequence (whole entry): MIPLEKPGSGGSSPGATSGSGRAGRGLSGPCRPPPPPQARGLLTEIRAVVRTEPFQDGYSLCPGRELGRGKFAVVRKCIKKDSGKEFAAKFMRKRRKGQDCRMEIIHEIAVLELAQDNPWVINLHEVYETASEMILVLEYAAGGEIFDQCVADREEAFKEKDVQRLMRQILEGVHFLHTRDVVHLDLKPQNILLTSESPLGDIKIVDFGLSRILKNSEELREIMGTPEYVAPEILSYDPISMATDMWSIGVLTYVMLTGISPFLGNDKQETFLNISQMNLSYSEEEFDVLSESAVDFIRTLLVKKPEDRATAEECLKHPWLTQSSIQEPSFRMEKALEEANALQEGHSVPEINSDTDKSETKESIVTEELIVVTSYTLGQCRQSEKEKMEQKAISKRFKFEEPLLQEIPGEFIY
In words: Selectivity interaction (KinomeScan (DiscoverX)) EUB0000666a STK17A.

For experiment [2], the target named is T2, Inhibitor of nuclear factor kappa-B kinase subunit epsilon (Homo sapiens) (UniProt Q14164).
T2 sequence (whole entry): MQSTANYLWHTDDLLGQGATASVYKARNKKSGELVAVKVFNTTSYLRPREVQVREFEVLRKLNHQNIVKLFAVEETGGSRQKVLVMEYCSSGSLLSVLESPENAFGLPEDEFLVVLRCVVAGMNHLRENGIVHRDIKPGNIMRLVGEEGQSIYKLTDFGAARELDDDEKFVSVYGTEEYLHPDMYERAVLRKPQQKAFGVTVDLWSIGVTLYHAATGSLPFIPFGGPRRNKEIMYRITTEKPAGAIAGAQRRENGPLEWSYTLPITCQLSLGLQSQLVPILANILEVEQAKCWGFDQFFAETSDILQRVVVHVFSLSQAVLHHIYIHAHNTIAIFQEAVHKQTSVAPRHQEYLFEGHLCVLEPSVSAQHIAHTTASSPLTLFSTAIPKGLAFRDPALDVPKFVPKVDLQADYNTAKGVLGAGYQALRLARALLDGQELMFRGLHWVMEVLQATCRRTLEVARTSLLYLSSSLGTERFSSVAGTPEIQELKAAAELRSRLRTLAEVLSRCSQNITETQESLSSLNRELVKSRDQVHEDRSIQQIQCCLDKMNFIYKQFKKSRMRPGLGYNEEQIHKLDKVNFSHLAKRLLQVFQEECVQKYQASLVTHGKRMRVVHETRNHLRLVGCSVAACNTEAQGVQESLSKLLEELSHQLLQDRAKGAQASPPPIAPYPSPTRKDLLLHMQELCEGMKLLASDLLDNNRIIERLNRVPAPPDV
The experiment is described as follows: Selectivity interaction (KinomeScan (DiscoverX)) EUB0000092b IKBKE.

Experiment [3] concerns the target T3, cGMP-dependent protein kinase 2 (Homo sapiens) (UniProt Q13237).
T3 sequence (whole entry): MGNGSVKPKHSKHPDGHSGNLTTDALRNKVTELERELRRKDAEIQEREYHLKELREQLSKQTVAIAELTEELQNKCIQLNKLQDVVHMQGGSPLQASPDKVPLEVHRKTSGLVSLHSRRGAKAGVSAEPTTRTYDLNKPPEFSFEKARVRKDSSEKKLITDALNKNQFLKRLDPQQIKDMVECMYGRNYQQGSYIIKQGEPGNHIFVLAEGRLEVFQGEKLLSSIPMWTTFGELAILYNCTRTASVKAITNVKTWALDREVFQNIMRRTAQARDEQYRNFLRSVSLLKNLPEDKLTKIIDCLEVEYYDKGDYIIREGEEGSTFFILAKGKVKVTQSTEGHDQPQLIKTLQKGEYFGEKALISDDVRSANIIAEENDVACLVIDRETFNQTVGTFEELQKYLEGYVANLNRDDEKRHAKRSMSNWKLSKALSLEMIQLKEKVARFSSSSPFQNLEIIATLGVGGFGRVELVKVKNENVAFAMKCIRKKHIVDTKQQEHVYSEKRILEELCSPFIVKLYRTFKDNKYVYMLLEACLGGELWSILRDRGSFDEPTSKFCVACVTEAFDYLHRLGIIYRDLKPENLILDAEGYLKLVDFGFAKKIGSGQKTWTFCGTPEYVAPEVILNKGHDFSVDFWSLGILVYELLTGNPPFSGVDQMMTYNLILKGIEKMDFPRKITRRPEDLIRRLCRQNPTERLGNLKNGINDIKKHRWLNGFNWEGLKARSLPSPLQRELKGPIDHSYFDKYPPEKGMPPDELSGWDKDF
In words: Selectivity interaction (KinomeScan (DiscoverX)) EUB0000595a PRKG2.

With `O=C(NOC[C@H](O)CO)c1ccc(F)c(F)c1Nc1ccc(I)cc1F`, the % of control in experiment [1] turned out to be 100%. As to `CCC(=O)N1CCN(c2ccc(-n3c(=O)ccc4cnc5ccc(-c6cnc7ccccc7c6)cc5c43)cc2C(F)(F)F)CC1`, in experiment [2], the % of control worked out at 87%. Molecule `COCC(=O)NC/C=C/c1ccc2ncnc(Nc3ccc(Oc4ccc(C)nc4)c(C)c3)c2c1` [CP-724714] registered a % of control in experiment [3] of 100%.
